Measurements: PubChem BioAssay AID328 (DTP/NCI, 2004)
Where “and” joins values, the source holds several entries; their conditions need not be identical. Identical values can stand only once. Inconclusive results and toxic doses are left out. The calls were made as follows: active = survival T/C of 150% or more; inactive = T/C below 125% in these data.

System: BDF1 mice, P388 leukemia ip, median survival T/C
Assay: NCI In Vivo Anticancer Drug Screen. Data for tumor model P388 Leukemia (intraperitoneal) in B6D2F1 (BDF1) mice
Conditions: endpoint: median survival time, higher = longer survival
Outline: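 Reported as T/C, where T is the survival measurement in dosed animals and C the same measurement in vehicle controls.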

[1] = dose: 100.0 mg/kg/injection, schedule: Q01DX009 (ip), vehicle: saline with Tween-80
[2] = dose: 200.0 mg/kg/injection, schedule: Q01DX009 (ip), vehicle: saline with Tween-80
[3] = dose: 200.0 mg/kg/injection, schedule: Q01DX009 (ip), vehicle: saline
[4] = dose: 50.0 mg/kg/injection, schedule: Q01DX009 (ip), vehicle: saline with Tween-80
[5] = dose: 100.0 mg/kg/injection, schedule: Q04DX003 (ip), vehicle: saline with Tween-80
[6] = dose: 200.0 mg/kg/injection, schedule: Q04DX003 (ip), vehicle: saline with Tween-80
[7] = dose: 400.0 mg/kg/injection, schedule: Q04DX003 (ip), vehicle: saline with Tween-80
[8] = dose: 100.0 mg/kg/injection, schedule: Q01DX009 (ip), vehicle: Klucel (hydroxypropylcellulose) (HPC)
[9] = dose: 200.0 mg/kg/injection, schedule: Q01DX009 (ip), vehicle: Klucel (hydroxypropylcellulose) (HPC)
[10] = dose: 400.0 mg/kg/injection, schedule: Q01DX009 (ip), vehicle: Klucel (hydroxypropylcellulose) (HPC)

Measured: T/C

N=C(N)c1nn(C2OC(CO)C(O)C2O)c2ncnc(N)c12 (stereo unspecified)
inactive: dose: 10.0 mg/kg/injection, schedule: Q01DX009 (ip), vehicle: saline 114 % of control and 117 % of control | dose: 10.0 mg/kg/injection, schedule: Q04DX003 (ip), vehicle: saline 109 % of control and 118 % of control | dose: 20.0 mg/kg/injection, schedule: Q01DX009 (ip), vehicle: saline 117 % of control and 124 % of control | dose: 20.0 mg/kg/injection, schedule: Q04DX003 (ip), vehicle: saline 122 % of control | dose: 40.0 mg/kg/injection, schedule: Q04DX003 (ip), vehicle: saline 104 % of control | dose: 80.0 mg/kg/injection, schedule: Q04DX003 (ip), vehicle: saline 95 % of control

CC1OC(O[C@@H]2C=C3CC[C@@H]4[C@H](CC[C@]5(C)[C@@H](c6ccc(=O)oc6)CC[C@]45O)[C@@]3(C)CC2)C(O)C(OC2OC(CO)C(O)C(O)C2O)C1O (stereo partly specified)
inactive: dose: 0.8 mg/kg/injection, schedule: Q01DX010 (sc), vehicle: steriod suspending solution 100 % of control | dose: 1.6 mg/kg/injection, schedule: Q01DX010 (sc), vehicle: steriod suspending solution 95 % of control | dose: 2.0 mg/kg/injection, schedule: Q01DX010 (ip), vehicle: carboxymethylcellulose (CMC) 110 % of control | dose: 3.25 mg/kg/injection, schedule: Q01DX010 (sc), vehicle: steriod suspending solution 110 % of control | dose: 4.0 mg/kg/injection, schedule: Q01DX010 (ip), vehicle: carboxymethylcellulose (CMC) 100 % of control | dose: 7.5 mg/kg/injection, schedule: Q01DX010 (sc), vehicle: steriod suspending solution 115 % of control | dose: 8.0 mg/kg/injection, schedule: Q01DX010 (ip), vehicle: carboxymethylcellulose (CMC) 95 % of control | dose: 15.0 mg/kg/injection, schedule: Q01DX010 (sc), vehicle: steriod suspending solution 105 % of control | dose: 30.0 mg/kg/injection, schedule: Q01DX010 (sc), vehicle: steriod suspending solution 100 % of control

NC(Cc1ccc([N+](=O)[O-])cc1)C(=O)O (stereo unspecified)
inactive: [1] 105 % of control | dose: 100.0 mg/kg/injection, schedule: Q01DX009 (ip), vehicle: saline 100 % of control | dose: 100.0 mg/kg/injection, schedule: Q04DX003 (ip), vehicle: other 100 % of control | [2] 110 % of control | [3] 100 % of control | dose: 200.0 mg/kg/injection, schedule: Q04DX003 (ip), vehicle: other 104 % of control | dose: 400.0 mg/kg/injection, schedule: Q01DX009 (ip), vehicle: saline with Tween-80 90 % of control | dose: 400.0 mg/kg/injection, schedule: Q01DX009 (ip), vehicle: saline 86 % of control | dose: 400.0 mg/kg/injection, schedule: Q04DX003 (ip), vehicle: other 100 % of control

C=C(C)CP(=O)(c1ccccc1)c1ccccc1
inactive: [4] 96 % of control | [1] 100 % of control | [2] 91 % of control

Cc1ccc(NC(=O)COc2cc(Cl)c(Cl)cc2Cl)cc1C
inactive: [5] 90 % of control | [6] 90 % of control | [7] 86 % of control

O=C(OCC#CC#CCOC(=O)c1cccc2ccccc12)c1cccc2ccccc12
inactive: [8] 100 % of control | [9] 95 % of control | [10] 105 % of control

CP(O)(=S)C1CCCCC1 (stereo unspecified) (tested in a mixture with another compound)
inactive: dose: 50.0 mg/kg/injection, schedule: Q01DX005 (ip), vehicle: saline 94 % of control | dose: 100.0 mg/kg/injection, schedule: Q01DX005 (ip), vehicle: saline 91 % of control | dose: 200.0 mg/kg/injection, schedule: Q01DX005 (ip), vehicle: saline 90 % of control

C=CC1CC[N-]CC1.C=CC1CC[N-]CC1.C=CC1CC[N-]CC1.[Cl][Cr]([Cl])[Cl]
inactive: dose: 12.5 mg/kg/injection, schedule: Q01DX009 (ip), vehicle: saline with Tween-80 100 % of control | dose: 25.0 mg/kg/injection, schedule: Q01DX009 (ip), vehicle: saline with Tween-80 109 % of control | [4] 104 % of control

NC(CO)Cc1ccccc1 (stereo unspecified)
inactive: dose: 12.5 mg/kg/injection, schedule: Q01DX009 (ip), vehicle: Klucel (hydroxypropylcellulose) (HPC) 106 % of control | dose: 25.0 mg/kg/injection, schedule: Q01DX009 (ip), vehicle: Klucel (hydroxypropylcellulose) (HPC) 91 % of control

CCc1c(Cl)c(C)cc(O)c1Cl
inactive: dose: 18.0 mg/kg/injection, schedule: Q01DX009 (ip), vehicle: gum acacia 112 % of control | dose: 25.0 mg/kg/injection, schedule: Q01DX009 (ip), vehicle: gum acacia 112 % of control | dose: 25.0 mg/kg/injection, schedule: Q04DX003 (ip), vehicle: gum acacia 88 % of control | dose: 50.0 mg/kg/injection, schedule: Q01DX009 (ip), vehicle: gum acacia 100 % of control | dose: 50.0 mg/kg/injection, schedule: Q04DX003 (ip), vehicle: gum acacia 92 % of control | dose: 100.0 mg/kg/injection, schedule: Q04DX003 (ip), vehicle: gum acacia 96 % of control

O=C(CC(NC(=O)OCc1ccccc1)c1nn[nH]n1)OCc1ccccc1 (stereo unspecified)
inactive: [5] 100 % of control | [6] 95 % of control | [7] 95 % of control

OCC1OC(n2cnc3c2NC=NC[C@H]3O)CC1O (stereo partly specified)
inactive: dose: 0.25 mg/kg/injection, schedule: Q01DX005 (ip), vehicle: water 102 % of control | dose: 0.25 mg/kg/injection, schedule: Q01DX009 (ip), vehicle: water 105 % of control | dose: 0.25 mg/kg/injection, schedule: Q04DX002 (ip), vehicle: saline 102 % of control | dose: 0.25 mg/kg/injection, schedule: Q04DX003 (ip), vehicle: saline 100 % of control | dose: 0.5 mg/kg/injection, schedule: Q01DX005 (ip), vehicle: water 109 % of control | dose: 0.5 mg/kg/injection, schedule: Q01DX009 (ip), vehicle: water 102 % of control | dose: 0.5 mg/kg/injection, schedule: Q04DX002 (ip), vehicle: saline 101 % of control | dose: 0.5 mg/kg/injection, schedule: Q04DX003 (ip), vehicle: saline 99 % of control | dose: 0.8 mg/kg/injection, schedule: Q01DX009 (ip), vehicle: saline 94 % of control | dose: 1.0 mg/kg/injection, schedule: Q01DX009 (ip), vehicle: saline 99 % of control | dose: 1.3 mg/kg/injection, schedule: Q01DX009 (ip), vehicle: saline 92 % of control | dose: 1.5 mg/kg/injection, schedule: Q01DX009 (ip), vehicle: saline 96 % of control | dose: 2.0 mg/kg/injection, schedule: Q01DX001 (ip), vehicle: saline 108 % of control | dose: 2.0 mg/kg/injection, schedule: Q01DX009 (ip), vehicle: saline 92 % of control | dose: 2.25 mg/kg/injection, schedule: Q01DX009 (ip), vehicle: saline 99 % of control | dose: 3.0 mg/kg/injection, schedule: Q01DX009 (ip), vehicle: saline 100 % of control | dose: 4.0 mg/kg/injection, schedule: Q01DX001 (ip), vehicle: saline 100 % of control

Cc1cc(C)c(S(=O)(=O)ON=C2c3ccccc3-c3ccccc32)c(C)c1
inactive: dose: 25.0 mg/kg/injection, schedule: Q01DX001 (ip), vehicle: Klucel (hydroxypropylcellulose) (HPC) 100 % of control | dose: 50.0 mg/kg/injection, schedule: Q01DX001 (ip), vehicle: Klucel (hydroxypropylcellulose) (HPC) 109 % of control | dose: 100.0 mg/kg/injection, schedule: Q01DX001 (ip), vehicle: Klucel (hydroxypropylcellulose) (HPC) 113 % of control | [8] 105 % of control | dose: 200.0 mg/kg/injection, schedule: Q01DX001 (ip), vehicle: Klucel (hydroxypropylcellulose) (HPC) 95 % of control | [9] 95 % of control | dose: 400.0 mg/kg/injection, schedule: Q01DX001 (ip), vehicle: Klucel (hydroxypropylcellulose) (HPC) 109 % of control | [10] 110 % of control

CCNC(=O)c1cc2cccc(OC)c2oc1=N
inactive: [3] 86 % of control
